Data set [1] has as its system obese diabetic C57BLKS db/db mice. Kind of data set: In vivo efficacy in diabetic db/db mice (plasma glucose, triglycerides, HOMA index). On the set-up: species or system mouse. The conditions noted are these: male db/db mice, after 1-2 weeks of treatment; for Plasma Triglycerides (% change compared to vehicle) / Plasma glucose (% change compared to vehicle): 6 h fast; for Insulin resistance HOMA index (% change compared to vehicle): HOMA = I0×G0/405. As for the experimental part: Male obese diabetic C57BLKS db/db mice (6 weeks old) were procured from the Jackson Laboratory (Bar Harbor, Me.) and were maintained on LabDiet 5K52 ad libitum with access to water. Animals were kept in a temperature-controlled room on a 12:12-h light-dark cycle. Experiments were performed on 6-9 week old mice.
Blood samples were collected after a 6 h fast on day 0 (baseline) and at the end week 1 and week 2 (day 7 and day 14) for analysis of glucose, triglycerides, total cholesterol, insulin and free fatty acid levels. Body weight and feed intake was measured twice weekly. Before initiation of the treatment, the animals were randomized based on plasma glucose levels into treatment groups (n=8 per group). The animals were administered the test compounds in 0.5% carboxymethylcellulose in water at the mentioned doses for two weeks by oral gavage. The control animals received the vehicle (0.5% carboxymethylcellulose in water) alone. Compound administration was continued till day 16.
Plasma glucose (PG) and triglycerides (TG) were measured spectrophotometrically in a microplate reader using reagent kits (Labkit, Merck) according to the manufacturer's instructions. Plasma insulin was measured by ELISA using a Rat/Mouse kit from Millipore (Cat. No. EZRMI-13K).
The percentage reduction was calculated according to the following formula
[formula] Statistical analysis was carried out by one way ANOVA followed by Dunnett's test using GraphPad Prism.
Determination of Homeostatic model assessment of insulin resistance (HOMA)—The HOMA index for insulin resistance was calculated using the formula— I0×G0/405 Where I0 is the fasting insulin (μU/ml), G0 is the fasting glucose in mg/dL. A factor of 6.945 was used for the conversion of insulin pmol/L to μlU/L).
The table below summarizes the effect on plasma glucose, triglycerides, and insulin resistance after 1-2 weeks of treatment with representative compounds of Formula I. Example numbers denote the products of examples given above. The data presented in the table is representative and should not be read as limiting the invention to the specific examples listed in the Table.

17 molecules from patent publication US8623897B2, “Methods and compositions for treatment of diabetes and dyslipidemia” (Kareus Therapeutics, SA, priority 2010, dated 2014) can be followed below.

Broadly, the melting point is the temperature of the solid-liquid transition. Molecule `CC(C)(CCCCCCCCCCCCC1(C(=O)O)CC1)C(=O)O` showed a melting point of 85.6 to 86.7 °C.

For `O=C(O)C1(CCCCCCCCCCCCC2(C(=O)NCCO)CC2)CC1` [Example 42, 1-{12-[1-(2-hydroxy-ethylcarbamoyl)-cyclopropyl]-dodecyl}-cyclopropane carboxylic acid], the melting point was in the range of 81.1 to 83.8 °C.

`N#CC1(CCCCCCCCCCCCC2(C(=O)O)CC2)CC1` showed a melting point of 44.4 to 46.9 °C.

`CCOC(=O)C1(CCCCCCCCCCCCC2(C(=O)OCC)CC2)CC1` [Example 10, 2,15-Dicyclopropyl-hexadecanedoic acid diethyl ester]: in data set [1] (15 mg/kg oral gavage), the “Plasma Triglycerides (% change compared to vehicle)” value is −23% and the “Plasma glucose (% change compared to vehicle)” value is −51%.

`COC(=O)C1(CCCCCCCCCCCCC2(C(=O)NS(C)(=O)=O)CC2)CC1` [Example 36, 1-[12-(1-Methanesulfonylaminocarbonyl-cyclopropyl)-dodecyl]-cyclopropanecarboxylic acid methyl ester] came in with a melting point of 53.5 to 54.5 °C.

For `O=C(O)CC1(CCCCCCCCCCCC2(C(=O)O)CC2)CC1` [Example 30, 1-[11-(1-Carboxymethyl-cyclopropyl)-undecyl]-cyclopropanecarboxylic acid], the melting point was in the range of 75.3 to 78.9 °C.

For `O=C(NCCO)C1(CCCCCCCCCCCCC2(C(=O)NCCO)CC2)CC1` [Example 40, 1,1′-dodecane-1,12-diylbis[N-(2-hydroxyethyl)cyclopropanecarboxamide]], the melting point was in the range of 112.5 to 113.5 °C.

The molecule `O=C(O)C1(CCCCCCCCCCCCC2(C(=O)NC3CC3)CC2)CC1` [Example 35, 1-[12-(1-Cyclopropylcarbamoyl-cyclopropyl)-dodecyl]-cyclopropane carboxylic acid] showed a melting point of 95.3 to 97.7 °C. The “Plasma glucose (% change compared to vehicle)” value in data set [1] (15 mg/kg oral gavage) was −30%.

Take `O=C(O)CC1(CCCCCCCCCCC2(C(=O)O)CC2)CC1` [Example 23, 1-[10-(1-Carboxymethyl-cyclopropyl)-decyl]-cyclopropanecarboxylic acid]: the melting point is 71.9 to 74.3 °C.

For `O=C(O)C1(CCCCCCCCCCCCC2(C(F)F)CC2)CC1` [Example 39, 1-[12-(1-Difluoromethyl-cyclopropyl)-dodecyl]-cyclopropanecarboxylic acid], the melting point fell in the range of 54 to 54.8 °C.

For `O=C(O)C1(CCCCCCCCCCCCC2(C(=O)O)CC2)CC1` [Example 1, 2,15-Dicycloproryl-hexadecanedioic acid], in data set [1] (10 mg/kg oral gavage), the “Plasma glucose (% change compared to vehicle)” value is reported as −52% and the “Insulin resistance HOMA index (% change compared to vehicle)” value is recorded as −65%.

Consider `O=C(O)CC1(CCCCCCCCCCC2(CC(=O)O)CC2)CC1` [Example 4, {1-[10-(1-carboxymethyl-cyclopropyl)-decyl]-cyclopropyl}-acetic acid], for which, in data set [1] (50 mg/kg oral gavage), the “Plasma Triglycerides (% change compared to vehicle)” value was −51% and the “Insulin resistance HOMA index (% change compared to vehicle)” value is listed as −54%.

`N#CC1(CCCCCCCCCCCCC2(C#N)CC2)CC1` registered a melting point of 45 to 46.9 °C.

The molecule `NC(=O)C1(CCCCCCCCCCCCC2(C(=O)O)CC2)CC1` [Example 12] showed a melting point of 116.6 to 118.1 °C. Besides, in data set [1] (20 mg/kg oral gavage), the “Plasma Triglycerides (% change compared to vehicle)” value was −28%, the “Plasma glucose (% change compared to vehicle)” value was −55% and the “Insulin resistance HOMA index (% change compared to vehicle)” value is −89%.

`CS(=O)(=O)NC(=O)C1(CCCCCCCCCCCCC2(C(=O)O)CC2)CC1` [Example 37, 1-[12-(1-Methanesulfonylaminocarbonyl-cyclopropyl)-dodecyl]-cyclopropanecarboxylic acid]: the melting point was in the range of 97.5 to 99.4 °C. The “Plasma glucose (% change compared to vehicle)” value in data set [1] (15 mg/kg oral gavage) is −59%.

With `COC(=O)C1(CCCCCCCCCCCCC2(C(=O)NC3CC3)CC2)CC1` [Example 34, 1-[12-(1-cyclopropylcarbamoyl-cyclopropyl)-dodecyl]-cyclopropane-carboxylic acid methyl ester], the melting point was 50.6 to 53 °C.

Take `COCC1(CCCCCCCCCCCCC2(C(=O)O)CC2)CC1` [Example 15, 1-[12-(1-Methoxymethyl-cyclopropyl)-dodecyl]-cyclopropanecarboxylic acid]: the melting point fell in the range of 36.4 to 37.6 °C. In data set [1] (15 mg/kg oral gavage), the “Plasma Triglycerides (% change compared to vehicle)” value is listed as −35%, the “Plasma glucose (% change compared to vehicle)” value is listed as −56% and the “Insulin resistance HOMA index (% change compared to vehicle)” value was −92%.
